{"source": "patent US20040204481A1", "about": "“Activation of natural killer cells by adenosine A3 receptor agonists” (priority 2001, published 2004)", "key": {"[1]": {"tested_on": "B-16 melanoma cells", "assay": "Adoptive transfer of splenocytes to melanoma bearing mice, count of lung melanoma foci", "type": "in vivo", "conditions": "splenocytes from 6 μg/kg Cl-IB-MECA treated mice engrafted 4 days after B-16 inoculation; day 15; versus non-activated splenocytes or control; FIG. 4", "from_the_text": "In another experiment, the capability of the “activated” splenocytes to act in vivo against melanoma cells was examined. The “non-activated” and “activated” splenocytes were engrafted to mice that were inoculated 4 days earlier with B-16 melanoma cells (2.5×10^5). As the control served mice that were inoculated with the B-16 melanoma cells however not engrafted with splenocytes. The mice were sacrificed on day 15 and their lungs were removed. The number of lung melanoma foci was counted, the results for which are depicted in FIG. 4."}, "[2]": {"tested_on": "human peripheral blood NK cells", "assay": "4 h 51Cr-release NK cytotoxicity assay, in vitro preincubation with agonist, K562 leukemia cells as targets", "type": "cell-based", "conditions": "for activity of natural killer cells following preincubation: 10 nM Cl-IB-MECA, 18 hours preincubation, K562 targets, E:T ratio 1:50, FIG. 1", "experimental": "Murine splenocytes were derived from spleens of ICR mice and human mononuclear cells were separated by Ficoll-Hypaque gradient from heparinized blood of healthy normal volunteers.\n(§1) The effect of Cl-IB-MECA on the activity of human peripheral blood NK cells was assayed by a standard 4 h ^51Cr-release assay using K562 leukemia cells as targets. Splenocytes or human mononuclear cells were cultured at a concentration of 5×10^5 cells/well in 96 well round bottom plates, and used as the effector (E) cells. The cells were preincubated with 10 nM Cl-IB-MECA for 18 hours, then the agonist was washed out from the wells and the cells were re-suspended in RPMI containing 5% FCS. K562 cells were used as the targets (T) and were labeled with 100 μci of Na2[^51Cr]O4 at 37° C., for 1 hr.\n(§2) After extensive washing to remove the excess ^51Cr, target cells (1×10^4) were re-suspended in RPMI and mixed with the effector cells at an E:T ratio of 1:50 in a total volume of 200 μl (triplicate assays). After 4 hours of incubation at 37° C. in 5% CO2, plates were centrifuged, and the supernatants were counted in a gamma counter (LKB).\n(§3) NK cytotoxicity was calculated using the following equation (CPM: counts per minute): [formula]\n(§4) CPM sample, CPM spontaneous and CPM maximal were determined by measuring the CPM of the supernatants of the target cells in the presence of […], the assay medium or in the presence of 1% triton, respectively. It should be noted that spontaneous release was below 10% of the maximal release throughout this experiment."}, "[3]": {"tested_on": "murine NK cells", "assay": "NK activity (51Cr assay) of splenocytes from ICR mice after oral administration", "type": "in vivo", "conditions": "FIG. 2; for NK activity of splenocytes derived from treated mice: 6 μg/kg orally for two consecutive days", "experimental": "as §1, §2, §3, §4\nICR mice were orally administered for two consecutive days with 6 μg/kg body weight of Cl-IB-MECA. After 4, 11 and 18 days, mice were sacrificed and spleens were removed. Splenocytes were separated and tested for NK activity using the ^51Cr assay as described above."}, "[4]": {"tested_on": "NK cells", "assay": "NK activity (51Cr assay) of splenocytes from B-16 melanoma bearing mice treated orally", "type": "in vivo, C57B1/6J mice", "conditions": "for NK activity of splenocytes versus vehicle control group: 15 days, B-16 melanoma inoculated mice, FIG. 3", "experimental": "In a further study C57B1/6J mice were used as the model mice which will develop metastatic lung foci after 15 days. The C57B1/6J mice were inoculated intravenously with B-16 melanoma cells (2.5×10^5) and treated daily orally with 6 or 9 μg/kg body weight of Cl-IB-MECA (starting one day after tumor inoculation). After 15 days, the mice were sacrificed and spleens were removed.\nSplenocytes were separated and tested for NK activity using the ^51Cr assay as described above. […] The splenocytes derived from the group treated with 6 μg/kg body weight of Cl-IB-MECA were designated as “activated” cells and those derived from the control group were designated as “non-activated” splenocytes."}}, "note": "Entries after “also recorded” stand apart in the source; their conditions may differ.", "data": [{"smiles": "CNC(=O)[C@H]1O[C@@H](n2cnc3c(NCc4cccc(I)c4)nc(Cl)nc32)[C@H](O)[C@@H]1O", "note": "[Cl-IB-MECA, 2-chloro-N^6-(3-iodobenzyl)-adenosine-5′-N-methyl-uronamide]", "values": [{"measurement": "development of lung metastatic foci", "setting": "[1]", "value": "decreased number of lung foci"}, {"measurement": "activity of natural killer cells following preincubation", "setting": "[2]", "value": "potentiation"}, {"measurement": "activity of natural killer cells following preincubation", "setting": "[2]; listed as CI-IB-MECA", "value": "significant dose dependent increase"}, {"measurement": "NK activity of splenocytes derived from treated mice", "setting": "[3]; after 4 days", "value": "marked increase"}, {"measurement": "NK activity of splenocytes derived from treated mice", "setting": "[3]; after 11 days", "value": "high activity was still observed"}, {"measurement": "NK activity of splenocytes derived from treated mice", "setting": "[3]; following 18 days", "value": "only slight increase"}, {"measurement": "time of maximal activation of murine NK cells", "setting": "[3]; oral administration", "value": 4, "unit": "days"}, {"measurement": "NK activity of splenocytes versus vehicle control group", "setting": "[4]; 6 μg/kg daily orally", "value": "marked increase"}, {"measurement": "NK activity of splenocytes versus vehicle control group", "setting": "[4]; 9 μg/kg daily orally", "value": "marked increase"}, {"measurement": "NK cell activity in splenocytes derived from treated melanoma bearing mice", "setting": "[4]; FIG. 3 legend, dose not stated there", "value": "increased NK cell activity"}]}, {"smiles": "O=C(Cc1ccccc1)Nc1nc2ccc(Cl)cc2c2nc(-c3ccco3)nn12", "note": "[MRS-1220, 9-chloro-2-(2-furanyl)-5-[(phenylacetyl)amino] [1,2,4,] -triazolo[1,5-c] quinazoline]", "values": [{"measurement": "effect of the A3 receptor antagonist on the stimulatory effect of Cl-IB-MECA on NK activity", "setting": "[2]; MRS-1220 introduced with Cl-IB-MECA, FIG. 1", "value": "reversed the stimulatory effect; also recorded: abolished the stimulatory effect"}]}]}
